Results on 1 compound are retold here after patent publication US11694765B2, “Interrogatory cell-based assays for identifying drug-induced toxicity markers” (Berg LLC, priority 2012, dated 2023).

Experiment [1] relates to hyperglycemia conditioned cardiomyocytes. The experiment can be described thus: Mitochondrial oxygen consumption rate (Seahorse analyzer). In kind it is cell-based, human. Conditions: diabetic drug plus rescue molecule (T1+R or T2+R). The protocol: (§1) Human cardiomyocytes were subject to conditions simulating an diabetic environment experienced by the disease-relevant cells in vivo. Specifically, the cells were exposed to hyperglycemic conditions and hyperlipidemia conditions. The hyperglycemic condition was induced by culturing cells in media containing 22 mM glucose. The hyperlipidemia condition was induced by culturing the cells in media containing 1 mM L-carnitine, 0.7 mM Oleic acid and 0.7 mM Linoleic acid. […]
iProfiling of changes in total cellular protein expression by quantitative proteomics was performed for cell and media samples collected for each condition and with each “environmental perturbation”, i.e, diabetic drug treatment, Coenzyme Q10 treatment or both, using the techniques described above in the detailed description. […] Following data collection (Ct), the final fold change over control was determined using the δCt method as outlined in manufacturer's protocol. […] Functional assays such as Oxygen consumption rate OCR were measured by employing the Seahorse analyzer essentially as recommended by the manufacturer. OCR was recorded by the electrodes in a 7 μl chamber created with the cartridge pushing against the seahorse culture plate. […]

The next experiment deals with normal fibroblast. Conditions: co-administration with VEGF; cited from earlier work.
The next experiment deals with melanoma cell. Particulars: in the presence of VEGF; cited from earlier work.
For experiment [2], the system named is human mitochondrial energy metabolism genes in diabetic cardiomyocytes. The experiment can be described thus: Transcriptional profiling of mitochondrial energy metabolism genes in diabetic cardiomyocytes. The class given is cell-based. Conditions: diabetic drug plus rescue molecule (T+R) vs untreated (UT). As to the method: as §1
Cell samples from each condition with each perturbation treatment were collected at various times following treatment, including after 6 hours of treatment. For certain conditions, media samples were also collected and analyzed.
iProfiling of changes in total cellular protein expression by quantitative proteomics was performed for cell and media samples collected for each condition and with each “environmental perturbation”, i.e, diabetic drug treatment, Coenzyme Q10 treatment or both, using the techniques described above in the detailed description. […] Following data collection (Ct), the final fold change over control was determined using the δCt method as outlined in manufacturer's protocol. […] Functional assays such as Oxygen consumption rate OCR were measured by employing the Seahorse analyzer essentially as recommended by the manufacturer. […]

Experiment [3] has as its system GPAT1 and TAZ in hyperglycemia conditioned cardiomyocytes. Description: Western blotting of GPAT1 and TAZ protein expression in cardiomyocytes. The class given is cell-based, human. Conditions: diabetic drug plus rescue molecule (T+R). As to the method:
Human cardiomyocytes were subject to conditions simulating an diabetic environment experienced by the disease-relevant cells in vivo. Specifically, the cells were exposed to hyperglycemic conditions and hyperlipidemia conditions. The hyperglycemic condition was induced by culturing cells in media containing 22 mM glucose. The hyperlipidemia condition was induced by culturing the cells in media containing 1 mM L-carnitine, 0.7 mM Oleic acid and 0.7 mM Linoleic acid.
The cell model comprising the above-mentioned cells, wherein the cells were exposed to each condition described above, was additionally “interrogated” by exposing the cells to an “environmental perturbation” by treating with a diabetic drug (T) which is known to cause cardiotoxicity, a rescue molecule (R) or both the diabetic drug and the rescue molecule (T+R). Specifically, the cells were treated with diabetic drug; or treated with rescue molecule Coenzyme Q10 at 0, 50 μM, or 100 μM; or treated with both of the diabetic drug and the rescue molecule Coenzyme Q10.
Protein expression levels of GPAT1 and TAZ for each condition and each treatment were tested with western blotting.
A general note: In western blotting, separated proteins are transferred to a membrane and probed.

`COC1=C(OC)C(=O)C(C/C=C(\C)CC/C=C(\C)CC/C=C(\C)CC/C=C(\C)CC/C=C(\C)CC/C=C(\C)CC/C=C(\C)CC/C=C(\C)CC/C=C(\C)CCC=C(C)C)=C(C)C1=O` [Coenzyme Q10]: the “mitochondrial oxygen consumption rate (OCR)” value in experiment [1] is “normalized”; in experiment [1] (listed as rescue molecule), “normalizes OCR”. For the same compound, the “levels of Bcl2” value in the experiment with normal fibroblast is “no effect”. Moreover, the “level of Bcl2” value in the experiment with melanoma cell was “decreased”. Also, the “transcriptional network and expression of human mitochondrial energy metabolism genes” value was “normalize gene expression and transcription” in experiment [2]; “normalizes gene expression” in experiment [2] (listed as rescue molecule). Also, the “protein expression level of GPAT1” value in experiment [3] is recorded as “normalized”. Further, the “protein expression level of TAZ” value in experiment [3] is “normalized”.
